From PMC8401948, “Improving the Solubility and Oral Bioavailability of a Novel Aromatic Aldehyde Antisickling Agent (PP10) for the Treatment of Sickle Cell Disease” (Pharmaceutics, 2021)
Values after ≈ are worked out from the molar mass of the structure shown.

Experiments:
[1] = parameters: method as in PMID 33205981; details: in vitro, whole blood; cited from earlier work
[2] = Pharmacokinetics study in rats, whole blood PP10-acid; assay type: in vivo, Sprague-Dawley rats; details: rat, all analyses
Procedure: A single-dose one-period parallel design was utilized to investigate the pharmacokinetics of pure PP10, the polymeric-PP10 binary systems with PVP-K90 and HP-β-CD, and the PP10-TPGS aqueous micelle solution formulation. The study was conducted according to the guidelines of Good Clinical Practice (GCP), the International Conference on Harmonization (ICH), and the European Medicines Agency (EMA). The protocol for the animal study received prior approval from the Research Ethics Committee, Faculty of Pharmacy, King Abdulaziz University, Saudi Arabia (reference no. PH-1442-68) in 04/03/2021.
Male Sprague-Dawley rats (300–350 g) were used. The animals were maintained on a 12 h light/dark cycle (lights-on at 7 a.m.) with free access to food and water in a temperature-controlled room. After 7 days of acclimatization, animals were classified into four groups (n = 6). Group I was administered oral drug tablets containing pure drug (positive control). Group II was given oral drug tablets containing PP10-PVP K90 binary system. […]
The concentration of the parent PP10 and PP10-acid metabolite in the whole blood samples were determined using a gradient elution HPLC chromatographic condition using a Waters Symmetry Shield C18 (Waters, MA, USA), 5 µm 3.9 × 150 mm column, and a Waters 2998 PDA detector (Waters, MA, USA) with detection wavelength adjusted to 274 nm. […]

[3] = Stability of PP10 at different pHs (HPLC, MASS scan); assay type: physicochemical
Procedure: The parent PP10 could hydrolyze into the corresponding PP10-acid either chemically (acid/base hydrolysis) or by the action of esterase in the blood, which could affect the PK and/or PD properties. This potential hydrolysis behavior was studied by investigating the stability of the parent methylester compound in buffer at different pHs, and in blood. To examine potential chemical degradation, a solution of PP10 (2 mg/mL) was prepared in methanol. Known volume (1 mL) of this methanol solution was diluted with a definite volume (20 mL) of buffer at pH 1.2, 5.5, or 7.4, corresponding to the gastric pH, the pH of the proximal small intestine, and the pH of the terminal ileum or physiological body fluids, respectively. Methanolic drug solution of the same concentration was also prepared as a reference. The different pH mixtures were incubated in a water bath at 37 °C overnight. The high-performance liquid chromatography (HPLC) chromatogram of the parent compound (methanolic drug solution) was compared with the corresponding drug buffer samples. The molecular weight of degraded product(s) was investigated using MASS scan. Details of the apparatus and conditions are described below.

[4] = system: sickle red blood cell (SS blood); assay: In vitro antisickling study with sickle whole blood; assay type: cell-based, human; details: for antisickling effect (RBC sickling inhibition): SS blood HCT 20%, 0.5, 1 and 2 mM, hypoxia 2.5% O2
Procedure: (§1) The parent PP10, its acid metabolite PP10-acid, and the sodium salt PP10-NaSalt were tested using homozygous sickle cell (SS) blood for their pharmacologic activities. Leftover blood samples from individuals with SS were obtained (based on an approved IRB protocol at the Children’s Hospital of Philadelphia, with informed consent) and used for in vitro antisickling, Hb modification, and oxygen equilibrium studies following methods previously published by our group. For the antisickling study, SS blood samples (hematocrit 20%) were incubated under air in the absence or presence of PP10, PP10-acid, or PP10-NaSalt (0.5 mM, 1 mM, and 2 mM) at 37 °C for 1 h, followed by incubation of the mixture under hypoxic conditions (2.5% O2/97.5% N2) at 37 °C for 2 h. Aliquots were fixed with 2% glutaraldehyde solution in sodium cacodylate buffer, pH 7.4, without exposure to air, and then subjected to microscopic morphological analysis of bright field images (at 40× magnification) of single layer cells on an Olympus BX40 microscope fitted with an Infinity 2 camera and coupled with Image Capture cellSens software (Olympus, Tokyo, Japan).

[5] = biological target: T1, HbS (Homo sapiens, UniProt P68871+P69905, E7V); assay: Hb modification (Hb adduct formation), cation-exchange HPLC; assay type: cell-based; details: SS blood, 0.5, 1 and 2 mM
T1 construct: tested using homozygous sickle cell (SS) blood for their pharmacologic activities; from tissue; host or cells: Whole blood (red blood cells) from individuals with homozygous sickle cell disease
Procedure: as §1, with “Aliquots were fixed with 2% glutaraldehyde solution in sodium cacodylate buffer, pH 7.4, without exposure to air, and then subjected to microscopic morphological analysis of bright field images (at 40× magnification) of single layer cells on an Olympus BX40 microscope fitted with an Infinity 2 camera and coupled with Image Capture cellSens software (Olympus, Tokyo, Japan).” left out
(§2) Residual samples from the above study were washed in phosphate-buffered saline and hemolyzed by hypotonic lysis in deionized water for the oxygen equilibrium and Hb modification (Hb adduct formation) studies. […] The areas of new peaks, representing HbS adducts, were obtained, calculated as percentages of total Hb area, and reported as levels of modified Hb or Hb adduct. […] Degree of Hb O2 affinity shift (ΔP50) was expressed as percentage of control DMSO-treated samples.

[6] = Equilibrium aqueous solubility of PP10 and polymeric-PP10 binary systems; assay type: physicochemical; details: distilled water, 25 °C
Procedure: The equilibrium solubility of pure PP10 and the three polymeric drug binary systems with PVP-K90, Eudragit L100-55, or HP-β-CD were studied to investigate the effect of the complexation on the aqueous solubility of PP10. An excess quantity of the pure drug or the prepared binary systems was added to 5 mL of distilled water in a screw-capped vial and transferred to a thermostatically controlled shaking water bath (Model 1031; GFL Corporation, Burgwedel, Germany) at 25 ± 0.5 °C for 72 h. […] Drug stock solution was prepared in methanol and different standard drug solutions in the range of 2–10 µg/mL were prepared. The absorbance of the prepared standard solutions was measured, resulting in a correlation coefficient (R^2) of 0.9986.

[7] = system: Hb; assay: Hb oxygen equilibrium study (Hemox Analyzer, P50 shift); assay type: cell-based, human; details: 2 mM, SS blood
Procedure: as §1, with “Aliquots were fixed with 2% glutaraldehyde solution in sodium cacodylate buffer, pH 7.4, without exposure to air, and then subjected to microscopic morphological analysis of bright field images (at 40× magnification) of single layer cells on an Olympus BX40 microscope fitted with an Infinity 2 camera and coupled with Image Capture cellSens software (Olympus, Tokyo, Japan).” left out
as §2

| SMILES | parent PP10 hydrolyzed into the PP10-acid metabolite [1] | parent PP10 compound in whole blood after dosing [2] | stability (hydrolysis to PP10-acid) ([3]; buffer pH 1.2, 37 °C overnight) | stability (hydrolysis to PP10-acid) ([3]; buffer pH 5.5, 37 °C overnight) | stability (hydrolysis to PP10-acid) ([3]; buffer pH 7.4, 37 °C overnight) | stability ([3]; straight methanol, 37 °C overnight) | inhibition at 2000 µM ([4]; Homo sapiens, Erythrocyte, 2 mM, SS blood, read-out: RBC sickling inhibition more than PP10-acid) | antisickling effect (RBC sickling inhibition) [4] | Hb adduct formation [5] | solubility at 72 h [6] | increase of Hb oxygen affinity compared with the ester (PP10) [7] |
| --- | --- | --- | --- | --- | --- | --- | --- | --- | --- | --- | --- |
| COC(=O)c1cccc(COc2cccc(O)c2C=O)n1 [PP10, Methyl 6-((2-formyl-3-hydroxyphenoxy)methyl) picolinate] | about 20% | No parent PP10 compound (PP10) was observed in any of the analyses | most significant degradation | degrades into the acid form | degrades into the acid form | stable | 36% | dose-dependent antisickling effect | highest Hb adduct formation | 0.012 ± 0.002 mg/mL (≈ 41.8 µM) | – |
| O=Cc1c(O)cccc1OCc1cccc(C(=O)[O-])n1.[Na+] [PP10-NaSalt] | – | – | – | – | – | – | – | almost no activity | significantly less adduct formation | – | – |
| O=Cc1c(O)cccc1OCc1cccc(C(=O)O)n1 [PP10-acid] | – | – | – | – | – | – | – | dose-dependent antisickling effect | – | – | about 30% |
